Laboratory results: patent US11549017B2, “NIR to SWIR fluorescent compounds for imaging and detection” (PERKINELMER HEALTH SCIENCES, INC., priority 2017, dated 2023)
“And” between values parts separate entries of the source, which are not always exact repeats. Identical values can stand only once. Each block holds one compound with its values, some of them ahead of it.

Assays:
Assay type in all cases: physicochemical
[1] = Fluorescence emission spectra with excitation at 980 nm (InGaAs NIR detector); conditions: for fluorescence emission in water: aqueous solution
Experimental: The emission of D2 was measured in acetonitrile (ACN), ethanol (EtOH), methanol (MeOH). Spectra were recorded on a Quantamaster 8075-21 fluorescence spectrophotometer equipped with a liquid nitrogen cooled cooled DSS-IGA020L/CUS InGaAs NIR detector with excitation at 980 nm and emission recorded from 1000 nm to 1200 nm. The emission spectra as illustrated in FIG. 2 are at equal absorbance at 980 nm for each solvent.
The fluorescence spectra for an equal absorbance ˜0.13 solution of dyes A, B, C in dichloroethane were determined by exciting at 980 nm (Horiba (Quantamaster 8075-21), nitrogen cooled InGaAs detector) and compared them with a commercially available dye, IR-26 (obtained from Exciton) D as reference. Dye B is more than 2 fold brighter than the reference IR-26 in DCE as illustrated in FIG. 3.
The fluorescence of dyes A, B and C were also determined in other solvents viz., methanol, ethanol, DMSO and water. […]

[2] = Absorbance spectra / absorbance maximum in solvents (UV/vis spectrophotometer)
Source text: Normalized spectra thus obtained are shown in FIG. 1 for each fluorochrome compound. […]

[3] = as above; remark: listed apart in the source
[4] = DCE, excitation 980 nm, equal absorbance ~0.13

- % Fluorescence Relative to C ([1]; DCE): 90.11%
- Fluorescence Max [1, 4]: 1064 nm
- % Fluorescence Relative to C ([1]; DMSO): 29.46%
- Fluorescence Max ([1]; DMSO, excitation 980 nm): 1080 nm
- % Fluorescence Relative to C ([1]; EtOH): 92.92%
- Fluorescence Max ([1]; EtOH, excitation 980 nm): 1050 nm
- % Fluorescence Relative to C ([1]; MeOH): 86.00%
- Fluorescence Max ([1]; MeOH, excitation 980 nm): 1046 nm
- fluorescence emission in water [1]: highly quenched
SMILES: CCn1/c(=C/C=C2\CCCC(/C=C/C3=[N+](CC)c4cccc5c(S(=O)(=O)[O-])ccc3c45)=C2Cl)c2ccc(S(=O)(=O)O)c3cccc1c32 [A]

- % Fluorescence Relative to C ([1]; DCE): 130.82%
- Fluorescence Max [1, 4]: 1080 nm
- % Fluorescence Relative to C ([1]; DMSO): 80.53%
- Fluorescence Max ([1]; DMSO, excitation 980 nm): 1092 nm
- % Fluorescence Relative to C ([1]; EtOH): 76.31%
- Fluorescence Max ([1]; EtOH, excitation 980 nm): 1062 nm
- % Fluorescence Relative to C ([1]; MeOH): 94.80%
- Fluorescence Max ([1]; MeOH, excitation 980 nm): 1056 nm
- fluorescence emission in water [1]: highly quenched
- brightness relative to the reference IR-26 ([1]; in DCE, excitation 980 nm, equal absorbance): more than 2 fold
SMILES: CCn1/c(=C/C=C2C(Cl)=C(/C=C/C3=[N+](CC)c4cccc5c(S(=O)(=O)[O-])ccc3c45)C3CCC/2C3)c2ccc(S(=O)(=O)O)c3cccc1c32 (centres unmarked) [B]

- % Fluorescence Relative to C ([1]; DCE): 1.00%
- Fluorescence Max [1, 4]: 1062 nm
- % Fluorescence Relative to C ([1]; DMSO): 1.00%
- Fluorescence Max ([1]; DMSO, excitation 980 nm): 1074 nm
- % Fluorescence Relative to C ([1]; EtOH): 1.00%
- Fluorescence Max ([1]; EtOH, excitation 980 nm): 1046 nm
- % Fluorescence Relative to C ([1]; MeOH): 1.00%
- Fluorescence Max ([1]; MeOH, excitation 980 nm): 1042 nm
- fluorescence emission in water [1]: highly quenched
SMILES: O=S(=O)([O-])CCCC[N+]1=C(/C=C/C2=C(Cl)C(=C/C=c3\c4cccc5cccc(c54)n3CCCCS(=O)(=O)O)/CCC2)c2cccc3cccc1c23 [C]

- Abs λmax (absorbance max, UV-Vis λmax) ([2]; methanol): ~980 nm
SMILES: O=C(O)CCCn1\c(=C/C=C/C=C/C=C/C2=[N+](CCCS(=O)(=O)O)c3ccc(S(=O)(=O)[O-])c4cccc2c34)c2cccc3c(S(=O)(=O)O)ccc1c32 [D13]

- Abs λmax (absorbance max, UV-Vis λmax) ([2]; methanol): ~1030 nm
SMILES: O=S(=O)([O-])CCC[N+]1=C(/C=C/C2=C(Cl)C(=C/C=c3/c4cccc5c(S(=O)(=O)O)ccc(c54)n3CCCS(=O)(=O)O)/C3CCC2C3)c2cccc3c(S(=O)(=O)O)ccc1c23 (centres unmarked) [D15]

- Abs λmax (absorbance max, UV-Vis λmax) ([2]; methanol): ~990 nm
SMILES: O=C(O)CCCn1\c(=C/C=C/C=C/C=C/C2=[N+](CCCC(=O)O)c3ccc(S(=O)(=O)[O-])c4cccc2c34)c2cccc3c(S(=O)(=O)O)ccc1c32 [D17]

- Abs λmax (absorbance max, UV-Vis λmax) ([2]; methanol): 970 nm and ~990 nm
SMILES: O=C(O)C[N+]1=C(/C=C/C=C/C=C/C=c2/c3cccc4c(S(=O)(=O)O)ccc(c43)n2CCCS(=O)(=O)O)c2cccc3c(S(=O)(=O)[O-])ccc1c23 [D18]

- Abs λmax (absorbance max, UV-Vis λmax) ([2]; methanol): 980 nm and ~1010 nm
SMILES: O=C(O)Cn1\c(=C/C=C/C=C/C=C/C2=[N+](CC(=O)O)c3ccc(S(=O)(=O)[O-])c4cccc2c34)c2cccc3c(S(=O)(=O)O)ccc1c32 [D19]

- Abs λmax (absorbance max, UV-Vis λmax) ([2]; methanol): ~980 nm
SMILES: C[N+]1=C(/C=C/C=C/C=C/C=c2/c3cccc4c(S(=O)(=O)O)ccc(c43)n2CCCC(=O)O)c2cccc3c(S(=O)(=O)[O-])ccc1c23 [D20]

- Abs λmax (absorbance max, UV-Vis λmax) ([2]; methanol): 851 nm
SMILES: CCn1\c(=C/C=C(/C=C/C2=[N+](CC)c3ccc(S(=O)(=O)O)c4cccc2c34)c2ccc(C(=O)O)cn2)c2cccc3c(S(=O)(=O)O)ccc1c32 [D71]

- Abs λmax (absorbance max, UV-Vis λmax) ([2]; methanol): ~1030 nm
- Abs λmax ([2]; methanol, unit not given): 1026
SMILES: O=S(=O)([O-])CCC[N+]1=C(/C=C/C2=C(Cl)C(=C/C=c3/c4cccc5cccc(c54)n3CCCS(=O)(=O)O)/C3CCC2C3)c2cccc3cccc1c23 (centres unmarked) [D72]

- Abs λmax (absorbance max, UV-Vis λmax) ([2]; methanol): 980 nm
SMILES: O=C(O)CCCn1/c(=C/C=C/C=C/C=C/C2=[N+](CCCC(=O)O)c3ccc(S(=O)(=O)[O-])c4cccc2c34)c2cccc3c(S(=O)(=O)O)ccc1c32 [D74]

- Abs λmax (absorbance max, UV-Vis λmax) ([2]; methanol): 990 nm
SMILES: CCOC(=O)C1(C(=O)OCC)CC(/C=C/C2=[N+](CCCS(=O)(=O)O)c3ccc(S(=O)(=O)[O-])c4cccc2c34)=CC(=C/C=c2\c3cccc4c(S(=O)(=O)O)ccc(c43)n2CCCS(=O)(=O)O)/C1 [D75]

- Abs λmax (absorbance max, UV-Vis λmax) ([2]; methanol): ~1026 nm
SMILES: Cn1/c(=C\C=C2C(Cl)=C(/C=C/C3=[N+](C)c4ccc(S(=O)(=O)[O-])c5cccc3c45)C3CCC\2C3)c2cccc3c(S(=O)(=O)O)ccc1c32 (centres unmarked) [D81]

- Abs λmax (absorbance max, UV-Vis λmax) ([2]; methanol): ~1020 nm
SMILES: Cn1/c(=C\C=C2/CCCC(/C=C/C3=[N+](C)c4ccc(S(=O)(=O)[O-])c5cccc3c45)=C2Cl)c2cccc3c(S(=O)(=O)O)ccc1c32 [D82]

- Abs λmax (absorbance max, UV-Vis λmax) ([2]; methanol): ~1020 nm
SMILES: O=S(=O)([O-])CCC[N+]1=C(/C=C/C2=C(Cl)C(=C/C=c3/c4cccc5cccc(c54)n3CCCS(=O)(=O)O)/CCC2)c2cccc3cccc1c23 [D84]

- Abs λmax (absorbance max, UV-Vis λmax) ([2]; methanol): ~1030 nm
SMILES: O=S(=O)(O)CCCn1/c(=C\C=C2/CCCC(/C=C/C3=[N+](CCCS(=O)(=O)O)c4ccc(S(=O)(=O)[O-])c5cccc3c45)=C2Cl)c2cccc3c(S(=O)(=O)O)ccc1c32 [D85]

- Abs λmax (absorbance max, UV-Vis λmax) ([2]; methanol): ~890 nm
SMILES: CC1(C)C(/C=C/C=C/C=C/C=c2/c3cccc4c(S(=O)(=O)O)ccc(c43)n2CCCC(=O)O)=[N+](CCCS(=O)(=O)[O-])c2ccc3c(S(=O)(=O)O)cc(S(=O)(=O)O)cc3c21 [D86]

- % Fluorescence Relative to C ([1]; DCE): 58.89%
- Fluorescence Max [1, 4]: 1118 nm
SMILES: ClC1=C(/C=C/c2cc(-c3ccccc3)[s+]c3ccccc23)CCC/C1=C\C=C1/C=C(c2ccccc2)Sc2ccccc21.[O-][Cl+3]([O-])([O-])[O-] [D (IR-26), IR-26, reference compound]

- Absorption max ([3]; in Acetonitrile): 1019 nm
- Absorption max ([3]; in Chloroform): 820 nm
- Absorption max ([3]; in DMSO): 1069 nm and 1065 nm
- Absorption max ([3]; in Dichloromethane): 810 nm
- Absorption max ([3]; in Ethanol): 1032 nm
- Absorption max ([2]; in Methanol): 1022 nm
- Absorption max ([2]; in Water): 829 nm
SMILES: CCn1/c(=C\C=C2/CCCC(/C=C/C3=[N+](CC)c4ccc(S(=O)(=O)O)c5cccc3c45)=C2Cl)c2cccc3c(S(=O)(=O)O)ccc1c32 [compound 26]
